Data taken from US10150760B2, “Compounds for use in preparing heterocyclic triazole agonists of the APJ receptor” (AMGEN INC., priority 2016, dated 2018).

Experiments:
[1] = tested on: isolated perfused rat hearts; assay: Ex vivo isolated perfused rat heart assay (Langendorff apparatus), load independent inotropic and lusitropic effects; design: species or system Sprague Dawley rat; conditions: for Isolated Heart Assay dP/dtmax (%) / Isolated Heart Assay dP/dtmin (%): ex vivo isolated perfused rat heart, percent change over vehicle; for Isolated Heart Assay dP/dtmax (%): contractility; for Isolated Heart Assay dP/dtmin (%): relaxation; for left ventricular dP/dtmax (load independent cardiac contractility) / left ventricular dP/dtmin (load independent cardiac relaxation, lusitropic effect): ex vivo naive Sprague Dawley rat hearts, Langendorff apparatus, compared with vehicle
In short: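 Hearts from naive Sprague Dawley rats were perfused retrograde via the aorta with oxygenated modified Krebs-Henseleit buffer on a Langendorff apparatus, with agonist infused at several concentrations. An LV balloon recorded dP/dtmax (contractility) and dP/dtmin (relaxation), expressed as percent change over vehicle.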

[2] = tested on: Male Lewis rats with heart failure induced by permanent ligation of the left descending coronary artery; assay: Cardiac contractility in vivo in heart failure (MI) rat model; conditions: for cardiac contractility as measured by dP/dtmax (derivative of left ventricular pressure): heart failure rats, ejection fraction <35%, administered acutely for 30 min; for MI Rat Model dP/dtmax (%): in vivo, heart failure (MI) rat, acute administration for 30 min
Procedure: Evidence for Improvement in Cardiac Contractility In Vivo in Heart Failure Rat Model
Based on the ex vivo findings in isolated heart assay, APJ agonists were dosed in vivo to investigate the translation of cardiac contractility in in vivo settings. Male Lewis rats (Charles River, USA) at 2-3 months of age were used for the study. Heart failure was induced by permanent ligation of the left descending coronary artery which results in injury to the heart with an ejection fraction of <35%. APJ agonists were administered dose dependently acutely for a period of 30 min.

human APJ receptor = human APJ receptor (Homo sapiens (Human), UniProt P35414); assay: [35S]GTPγS binding assay on membranes from CHO cells stably expressing human APJ receptor; assay type: biochemical; conditions: read-out: Activity hAPJ SPA EC50 IP
Chain of human APJ receptor (P35414 whole entry): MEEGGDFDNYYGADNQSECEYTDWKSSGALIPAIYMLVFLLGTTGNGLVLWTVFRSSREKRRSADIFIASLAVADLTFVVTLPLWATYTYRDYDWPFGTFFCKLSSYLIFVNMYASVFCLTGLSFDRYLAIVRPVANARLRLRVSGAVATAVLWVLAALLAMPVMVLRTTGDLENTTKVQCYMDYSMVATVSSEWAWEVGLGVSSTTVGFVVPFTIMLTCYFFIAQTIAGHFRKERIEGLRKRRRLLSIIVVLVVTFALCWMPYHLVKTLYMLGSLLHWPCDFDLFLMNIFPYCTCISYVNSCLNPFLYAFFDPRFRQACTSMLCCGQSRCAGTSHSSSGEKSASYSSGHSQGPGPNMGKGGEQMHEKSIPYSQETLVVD
In short: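 Agonist-driven [35S]GTPγS (0.2 nM) binding was measured over 90 min at room temperature on human APJ-expressing CHO membranes with bead capture, in buffer containing 3 μM GDP, 200 mM NaCl and 5 mM MgCl2 (pH 7.5). Excess unlabelled GTPγS (100 μM) gave nonspecific signal; EC50 from non-linear fits.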

heart failure rats = assay: Cardiac function with APJ small molecule agonists in the presence of ACE inhibitor captopril in heart failure rats in vivo; design: species or system rat; conditions: captopril alone, acute settings
From the text: The interaction between […] (ACE2) and Apelin biology is complicated. To investigate the interaction between the Apelin-APJ and ACE signaling pathways, we examined the improvement in cardiac function with APJ small molecule agonists in the presence of ACE inhibitor captopril in heart failure rats in vivo. […] However, in the presence of an APJ agonist, there was a shift in potency to the left with marked improvement in contractility and ejection fraction without changes in heart rate. These findings provide a new reference for the understanding of the regulation of ACE2 for the renin angiotensin aldosterone system (RAAS), independent of AT1R signaling and offer new potential drug targets for the treatment of diseases such as hypertension and heart failure. This work clearly establishes that combination of an agonist of the APJ receptor with an ARB such as losartan and/or with an ACE inhibitor such as captopril which may play an important role in providing greater efficacy in treating heart failure patients, for example in improving contractility and ejection fraction without changing the heart rate.

COc1cccc(OC)c1-n1c(NS(=O)(=O)[C@@H](C)[C@H](C)c2ncc(Cl)cn2)nnc1[C@H]1CCOC1 (single isomer, unassigned) [Example 60.0, (2S,3R)-3-(5-chloropyrimidin-2-yl)-N-(4-(2,6-dimethoxyphenyl)-5-((R)-tetrahydrofuran-3-yl)-4H-1,2,4-triazol-3-yl)butane-2-sulfonamide or (2S,3R)-3-(5-chloropyrimidin-2-yl)-N-(4-(2,6-dimethoxyphenyl)-5-((S)-tetrahydrofuran-3-yl)-4H-1,2,4-triazol-3-yl)butane-2-sulfonamide]
Isolated Heart Assay dP/dtmax (%) [1]: 19.1%
Isolated Heart Assay dP/dtmin (%) [1]: 18.3%
left ventricular dP/dtmax (load independent cardiac contractility) [1]: increases load independent cardiac contractility
left ventricular dP/dtmin (load independent cardiac relaxation, lusitropic effect) [1]: increases load independent cardiac relaxation
cardiac contractility as measured by dP/dtmax (derivative of left ventricular pressure) [2]: increase in cardiac contractility
MI Rat Model dP/dtmax (%) [2]: 20.0%
EC50 (human APJ receptor): 9.3 nM

C[C@H](CS)C(=O)N1CCC[C@H]1C(=O)O [Captopril, captopril]
improvement in contractility or ejection fraction (heart failure rats): does not show a marked improvement in contractility or ejection fraction

COc1cccc(OC)c1-n1c(NS(=O)(=O)[C@@H](C)[C@H](C)c2ncc(Cl)cn2)nnc1[C@H]1CCCOC1 (single isomer, unassigned) [Example 63.0, (2S,3R)-3-(5-chloropyrimidin-2-yl)-N-(4-(2,6-dimethoxyphenyl)-5-((R)-tetrahydro-2H-pyran-3-yl)-4H-1,2,4-triazol-3-yl)butane-2-sulfonamide or (2S,3R)-3-(5-chloropyrimidin-2-yl)-N-(4-(2,6-dimethoxyphenyl)-5-((S)-tetrahydro-2H-pyran-3-yl)-4H-1,2,4-triazol-3-yl)butane-2-sulfonamide]
Isolated Heart Assay dP/dtmax (%) [1]: 14.0%
Isolated Heart Assay dP/dtmin (%) [1]: 11.0%
EC50 (human APJ receptor): 1.5 nM

COc1cccc(OC)c1-n1c(NS(=O)(=O)[C@@H](C)[C@H](C)c2ncc(C)cn2)nnc1[C@H]1CCCO1 (single isomer, unassigned) [Example 49.0, (2S,3R)-N-(4-(2,6-dimethoxyphenyl)-5-((S)-tetrahydrofuran-2-yl)-4H-1,2,4-triazol-3-yl)-3-(5-methylpyrimidin-2-yl)butane-2-sulfonamide or (2S,3R)-N-(4-(2,6-dimethoxyphenyl)-5-((R)-tetrahydrofuran-2-yl)-4H-1,2,4-triazol-3-yl)-3-(5-methylpyrimidin-2-yl)butane-2-sulfonamide]
Isolated Heart Assay dP/dtmax (%) [1]: 20%
Isolated Heart Assay dP/dtmin (%) [1]: 55%
left ventricular dP/dtmax (load independent cardiac contractility) [1]: increases load independent cardiac contractility
left ventricular dP/dtmin (load independent cardiac relaxation, lusitropic effect) [1]: increases load independent cardiac relaxation
cardiac contractility as measured by dP/dtmax (derivative of left ventricular pressure) [2]: increase in cardiac contractility
MI Rat Model dP/dtmax (%) [2]: 20.0%
EC50 (human APJ receptor): 1.8 nM
